Assay [1] relates to L6-myotubes. As to the kind of experiment: Measurement of intracellular cAMP levels in differentiated L6-myotubes. It counts as cell-based. Particulars: 0.25 h; agonist final concentration 1×10^−5, 15 min; differentiated cells; Table 1; read-out: Biological example 2 (intracellular cAMP levels, activity compared to that of isoproterenol). The procedure:
(§1) L6-myoblasts were grown in Dulbecco's Modified Eagle's Medium (DMEM) containing 4.5 g/l glucose supplemented with 10% fetal bovine serum, 2 mM L-Glutamine, 50 U/ml penicillin, 50 μg/ml streptomycin and 10 mM HEPES. Cells were plated at 1×10^5 cells per ml in 24-well plates. After reaching 90% confluence the cells were grown in medium containing 2% FBS for 7 days where upon cells differentiated into myotubes.
Differentiated cells were serum-starved overnight and stimulated with agonist, final concentration 1×10^−5, for 15 min in stimulation buffer (HBSS supplemented with 1% BSA, 5 mM HEPES and 1 mM IBMX, pH 7,4) The medium was then aspirated and to end the reaction 100 μL of 95% EtOH was added to each well of a 24-well plate and cells were kept in −20° C. over night. The EtOH was let to evaporate and 500 μL of lysis buffer (1% BSA, 5 mM HEPES and 0,3% Tween-20, pH 7,4) was added to each well before put in −80° C. for 30 min and then kept in −20° C. Intracellular cAMP levels were detected using an alpha screen cAMP kit (6760635D from Perkin Elmer). The activity for each compound is compared to that of isoproterenol.
(In general: Changes in cAMP serve as a functional read-out for many G protein-coupled receptors.)

Assay [2] has as its system L6-myotubes. As to the kind of experiment: Glucose uptake (3H-2-deoxy-glucose) in differentiated L6-myotubes. It counts as cell-based. As to conditions: agonist final concentration 1×10^−5; for Emax at 10 µM: differentiated L6-myotubes, Table 1, read-out: Biological example 1 (glucose uptake, activity compared to that of isoproterenol). The protocol: as §1
Differentiated L6-myotubes were serum-starved overnight in medium containing 0,5% fatty-acid free BSA and stimulated with agonist, final concentration 1×10^−5. After 1 h 40 min cells were washed with warm, glucose free medium or PBS and another portion of agonist was added to glucose free medium. After 20 min the cells were exposed to 50 nM ^3H-2-deoxy-glucose for another 10 min before washed in ice cold glucose free medium or PBS and lysed in 0.2 M NaOH for 1 h in 60° C.

Structures can show the parent of a compound that is named as a salt.

On to `CC1(C)CCC[C@H]([C@H](O)c2cccc(F)c2)N1` [Example 1, (R)-((R)-6,6-Dimethylpiperidin-2-yl)(3-fluorophenyl)methanol], for which the Emax at 10 µM was below 25% in assay [1] and 50 to 75% in assay [2].
The like results for `CC1(C)CCC[C@H]([C@@H](O)c2cccc(F)c2)N1` [Example 2, (S)-((R)-6,6-Dimethylpiperidin-2-yl)(3-fluorophenyl)methanol] were, in that order, below 25% and below 25%.
Regarding `CC1(C)CCC[C@H]([C@H](O)c2cccc(O)c2)N1` [Example 3, 3-((R)-((R)-6,6-Dimethylpiperidin-2-yl)(hydroxy)methyl)phenol acetate], the Emax at 10 µM in assay [1] was below 25%; in assay [2], 25 to 50%.
Consider `CC1(C)CCC[C@H]([C@@H](O)c2cccc(O)c2)N1` [Example 4, 3-((S)-((R)-6,6-Dimethylpiperidin-2-yl)(hydroxy)methyl)phenol acetate], for which the Emax at 10 µM was below 25% in assay [1] and 25 to 50% in assay [2].
For the molecule `CC1(C)CCC[C@H]([C@H](O)c2ccccc2Cl)N1` [Example 5, (R)-(2-Chlorophenyl)((R)-6,6-dimethylpiperidin-2-yl)methanol hydrochloride], the figures for the Emax at 10 µM in assay [1] and in assay [2] were below 25% and 25 to 50%, respectively.
Turning to `CC1(C)CCC[C@H]([C@@H](O)c2ccccc2Cl)N1` [Example 6, (S)-(2-Chlorophenyl)((R)-6,6-dimethylpiperidin-2-yl)methanol hydrochloride], the Emax at 10 µM in assay [1] was below 25%; in assay [2], above 75%.
The corresponding values for `CC1(C)CCC[C@H]([C@H](O)c2cccc(Cl)c2)N1` [Example 7, hydrochloride] are below 25% and 25 to 50%.
`CC1(C)CCC[C@H]([C@H](O)c2ccccc2F)N1` [Example 9, (R)-((R)-6,6-Dimethylpiperidin-2-yl)(2-fluorophenyl)methanol hydrochloride]: the Emax at 10 µM in assay [1] is below 25%; in assay [2], 50 to 75%.
Turning to `CC1(C)CCC[C@H]([C@@H](O)c2ccccc2F)N1` [Example 10, (S)-((R)-6,6-Dimethylpiperidin-2-yl)(2-fluorophenyl)methanol hydrochloride], the Emax at 10 µM in assay [1] is 25 to 50%; in assay [2] it was above 75%.
As for `CC1(C)CC[C@H]([C@H](O)c2cccc(F)c2)N1` [Example 11, (R)-((R)-5,5-Dimethylpyrrolidin-2-yl)(3-fluorophenyl)methanol hydrochloride], the Emax at 10 µM is below 25% in assay [1] and above 75% in assay [2].
For the molecule `CC1(C)CC[C@H]([C@@H](O)c2cccc(F)c2)N1` [Example 12, (S)-((R)-5,5-Dimethylpyrrolidin-2-yl)(3-fluorophenyl)methanol hydrochloride], the Emax at 10 µM in assay [1] is below 25%; in assay [2], 25 to 50%.
As for `CC1(C)CC[C@@H]([C@H](O)c2cccc(F)c2)N1` [Example 13, (R)-((S)-5,5-Dimethylpyrrolidin-2-yl)(3-fluorophenyl)methanol hydrochloride], the Emax at 10 µM in assay [1] and in assay [2] was below 25% in each case.
In the case of `CC1(C)CC[C@@H]([C@@H](O)c2cccc(F)c2)N1` [Example 14, (S)-((S)-5,5-Dimethylpyrrolidin-2-yl)(3-fluorophenyl)methanol hydrochloride], the Emax at 10 µM in assay [1] was below 25%; in assay [2], 25 to 50%.
For `CC1(C)CC[C@H]([C@H](O)c2cccc(O)c2)N1` [Example 15, (R)-((R)-5,5-Dimethylpyrrolidin-2-yl)(hydroxy)methyl)phenol acetate], the Emax at 10 µM in assay [1] is below 25%; in assay [2], above 75%.
The corresponding values for `CC1(C)CC[C@H]([C@@H](O)c2cccc(O)c2)N1` [Example 16, (S)-((R)-5,5-Dimethylpyrrolidin-2-yl)(hydroxy)methyl)phenol acetate] are below 25% and 50 to 75%.
Turning to `CC1(C)CC[C@@H]([C@H](O)c2cccc(O)c2)N1` [Example 17], the Emax at 10 µM in assay [1] was below 25%; in assay [2] it was 25 to 50%.
For `CC1(C)CC[C@@H]([C@@H](O)c2cccc(O)c2)N1` [Example 18], the Emax at 10 µM in assay [1] and in assay [2] was below 25% throughout.
For `CC1(C)CC[C@H]([C@H](O)c2ccccc2F)N1` [Example 19, (R)-((R)-5,5-Dimethylpyrrolidin-2-yl)(2-fluorophenyl)methanol hydrochloride], the Emax at 10 µM in assay [1] is below 25%; in assay [2], above 75%.
With `CC1(C)CC[C@H]([C@@H](O)c2ccccc2F)N1` [Example 20, (S)-((R)-5,5-Dimethylpyrrolidin-2-yl)(2-fluorophenyl)methanol hydrochloride], the Emax at 10 µM in assay [1] was below 25%; in assay [2], 25 to 50%.
For `CC1(C)CC[C@H]([C@H](O)c2ccc(F)cc2)N1` [Example 21, (R)-((R)-5,5-Dimethylpyrrolidin-2-yl)(4-fluorophenyl)methanol hydrochloride], the figures for the Emax at 10 µM in assay [1] and in assay [2] were below 25% and 50 to 75%, respectively.
The like results for `CC1(C)CC[C@H]([C@@H](O)c2ccc(F)cc2)N1` [Example 22, (S)-((R)-5,5-Dimethylpyrrolidin-2-yl)(4-fluorophenyl)methanol hydrochloride] were, in that order, below 25% and below 25%.
The corresponding values for `CC1(C)CC[C@H]([C@H](O)c2ccccc2Cl)N1` [Example 23, (R)-(2-Chlorophenyl)((R)-5,5-dimethylpyrrolidin-2-yl)methanol hydrochloride] are below 25% and above 75%.
The like results for `CC1(C)CC[C@H]([C@@H](O)c2ccccc2Cl)N1` [Example 24, (S)-(2-Chlorophenyl)((R)-5,5-dimethylpyrrolidin-2-yl)methanol hydrochloride] were, in that order, below 25% and below 25%.
Consider `CC1(C)CC[C@H]([C@H](O)c2cccc(Cl)c2)N1` [Example 25, (R)-(3-Chlorophenyl)((R)-5,5-dimethylpyrrolidin-2-yl)methanol hydrochloride], for which the Emax at 10 µM is below 25% in assay [1] and above 75% in assay [2].
The like results for `CCCC1(CCC)CC[C@H]([C@H](O)c2cccc(F)c2)N1` [Example 27, (R)-((R)-5,5-Dipropylpyrrolidin-2-yl)(3-fluorophenyl)methanol hydrochloride] were, in that order, below 25% and 50 to 75%.
The like results for `CCCC1(CCC)CC[C@H]([C@@H](O)c2cccc(F)c2)N1` [Example 28, (S)-((R)-5,5-Dipropylpyrrolidin-2-yl)(3-fluorophenyl)methanol hydrochloride] were, in that order, below 25% and below 25%.
Take `O[C@H](c1cccc(F)c1)[C@H]1CCC2(CC2)N1` [Example 29, (R)-(3-Fluorophenyl)((R)-4-azaspiro[2.4]heptan-5-yl)methanol hydrochloride]: the Emax at 10 µM in assay [1] is below 25%; in assay [2], 50 to 75%.
As for `CC1(C)CC[C@H]([C@@H](O)c2cc(F)c(N)c(F)c2)N1.Cl` [Example 51, (S)-(4-Amino-3,5-difluorophenyl)((R)-5,5-dimethylpyrrolidin-2-yl)methanol hydrochloride], the “Biological example 3” value in assay [2] (Table 2, glucose uptake assay of Biological Example 1) is listed as “+++ (more than 75% of that of isoproterenol)”.
